Reference: the supplement of paper PMC10627819

How the values were obtained:
B. subtilis 168 = assay: Bliss interaction score (quartile over a dose matrix) (fitness difference); higher = more antagonism (negative = synergy)
How it was run: (§1)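 Each OD595 reading at entry into stationary phase was scaled to the robust mean of the untreated wells on its plate, with a ceiling of 1. These ratios define fitness, and single-drug fitness was inferred from combinations. The Bliss score compares observed fitness with the product-based expectation and is reported as quartiles across all replicate types, technical, biological and donor/recipient.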

S. aureus DSM 20231 [1] = assay: as above
How it was run: as §1

S. aureus Newman [2] = assay: as above
How it was run: as §1

S. pneumoniae D39V [3] = assay: as above
How it was run: as §1

S. aureus DSM 20231 [4] = assay: fitness (endpoint OD595 vs no drug) (fraction); higher = more growth
How it was run: (§2)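 At 37 °C, bacteria in TSB, LB Lennox or CY were grown in 384-well plates from a starting OD595 of 0.01. OD595 was measured every 30 min for 14 h, with the first reading used as background. Fitness is the optical density at the switch to stationary phase as a fraction of the robust mean of no-drug control wells, capped at 1.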

S. aureus Newman [5] = assay: as above
How it was run: as §2

S. pneumoniae D39V [6] = assay: as above
How it was run: as §2
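Throughout, for Bliss interaction score (quartile over a dose matrix): first quartile when negative (synergy) and third quartile when positive (antagonism).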
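Throughout, for fitness (endpoint OD595 vs no drug): OD595 on entry to stationary phase over no-drug wells; at most 1.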

CC1(C)S[C@@H]2[C@H](NC(=O)[C@H](N)c3ccc(O)cc3)C(=O)N2[C@H]1C(=O)O [Amoxicillin] + CO/N=C(\C(=O)N[C@@H]1C(=O)N2C(C(=O)O)=C(COC(C)=O)CS[C@H]12)c1csc(N)n1 [Cefotaxime]
Settings	Bliss interaction score
B. subtilis 168	0.0789
S. aureus DSM 20231 [1]	-0.14
S. aureus Newman [2]	-0.0401
S. pneumoniae D39V [3]	-0.0441

fitness
Settings	first compound 0.0008 µg/mL	first compound 0.0015 µg/mL	first compound 0.003 µg/mL	first compound 0.0625 µg/mL	first compound 0.125 µg/mL	first compound 0.25 µg/mL
S. aureus DSM 20231 [4], partner 0.039 µg/mL	–	–	–	0.465	0.283	0.128
S. aureus DSM 20231 [4], partner 0.078 µg/mL	–	–	–	0.47	0.403	0.103
S. aureus DSM 20231 [4], partner 0.156 µg/mL	–	–	–	0.464	0.221	0.0332
S. aureus DSM 20231 [4], partner 0.312 µg/mL	–	–	–	0.456	0.0746	0.0409
S. aureus Newman [5], partner 0.078 µg/mL	–	–	–	0.728	0.711	0.626
S. aureus Newman [5], partner 0.156 µg/mL	–	–	–	0.575	0.551	0.51
S. aureus Newman [5], partner 0.312 µg/mL	–	–	–	0.327	0.156	0.159
S. aureus Newman [5], partner 0.625 µg/mL	–	–	–	0.191	0.0751	0.13
S. aureus Newman [5], partner 1.25 µg/mL	–	–	–	0.0345	0.0453	0.0376
S. aureus Newman [5], partner 2.5 µg/mL	–	–	–	0.0349	0.0311	0.0239
S. pneumoniae D39V [6], partner 0.0018 µg/mL	0.993	0.998	0.977	–	–	–
S. pneumoniae D39V [6], partner 0.0035 µg/mL	0.986	0.967	0.889	–	–	–
S. pneumoniae D39V [6], partner 0.007 µg/mL	0.882	0.882	0.762	–	–	–

one replicate
Settings	fitness
S. aureus DSM 20231 [4], first compound 0.5 µg/mL, partner 0.039 µg/mL	0.0334
S. aureus DSM 20231 [4], first compound 0.5 µg/mL, partner 0.078 µg/mL	0.0321
S. aureus DSM 20231 [4], first compound 0.5 µg/mL, partner 0.156 µg/mL	0.0325
S. aureus DSM 20231 [4], first compound 0.5 µg/mL, partner 0.312 µg/mL	0.0506
S. aureus Newman [5], first compound 0.0625 µg/mL, partner 0.039 µg/mL	0.709
S. aureus Newman [5], first compound 0.125 µg/mL, partner 0.039 µg/mL	0.736
S. aureus Newman [5], first compound 0.25 µg/mL, partner 0.039 µg/mL	0.749
S. pneumoniae D39V [6], first compound 0.006 µg/mL, partner 0.0018 µg/mL	0.457
S. pneumoniae D39V [6], first compound 0.006 µg/mL, partner 0.0035 µg/mL	0.344
S. pneumoniae D39V [6], first compound 0.006 µg/mL, partner 0.007 µg/mL	0.176

CC1(C)S[C@@H]2[C@H](NC(=O)[C@H](N)c3ccc(O)cc3)C(=O)N2[C@H]1C(=O)O [Amoxicillin] + CCC[C@@H]1C[C@@H](C(=O)N[C@@H]([C@H]2O[C@H](SC)[C@H](O)[C@@H](O)[C@H]2O)[C@H](C)Cl)N(C)C1 [Clindamycin]
Settings	Bliss interaction score
B. subtilis 168	-0.0391
S. aureus DSM 20231 [1]	0.0324
S. aureus Newman [2]	-0.0717
S. pneumoniae D39V [3]	0.151

Settings	fitness
S. aureus DSM 20231 [4], first compound 0.0625 µg/mL, partner 0.0625 µg/mL	0.132
S. aureus DSM 20231 [4], first compound 0.0625 µg/mL, partner 0.125 µg/mL	0.0693
S. aureus DSM 20231 [4], first compound 0.125 µg/mL, partner 0.0312 µg/mL	0.157
S. aureus DSM 20231 [4], first compound 0.125 µg/mL, partner 0.0625 µg/mL	0.0589
S. aureus DSM 20231 [4], first compound 0.125 µg/mL, partner 0.125 µg/mL	0.0684
S. aureus DSM 20231 [4], first compound 0.25 µg/mL, partner 0.0312 µg/mL	0.0508
S. aureus DSM 20231 [4], first compound 0.25 µg/mL, partner 0.0625 µg/mL	0.038
S. aureus DSM 20231 [4], first compound 0.25 µg/mL, partner 0.125 µg/mL	0.0621
S. aureus DSM 20231 [4], first compound 0.5 µg/mL, partner 0.0312 µg/mL	0.0205
S. aureus DSM 20231 [4], first compound 0.5 µg/mL, partner 0.0625 µg/mL	0.0091
S. aureus DSM 20231 [4], first compound 0.5 µg/mL, partner 0.125 µg/mL	0.0231
S. aureus Newman [5], first compound 0.0625 µg/mL, partner 0.0312 µg/mL	0.698
S. aureus Newman [5], first compound 0.125 µg/mL, partner 0.125 µg/mL	0.0978
S. pneumoniae D39V [6], first compound 0.0008 µg/mL, partner 0.0125 µg/mL	0.796
S. pneumoniae D39V [6], first compound 0.0008 µg/mL, partner 0.025 µg/mL	0.519
S. pneumoniae D39V [6], first compound 0.0008 µg/mL, partner 0.05 µg/mL	0.203
S. pneumoniae D39V [6], first compound 0.0015 µg/mL, partner 0.0125 µg/mL	0.77
S. pneumoniae D39V [6], first compound 0.0015 µg/mL, partner 0.015 µg/mL	0.92
S. pneumoniae D39V [6], first compound 0.0015 µg/mL, partner 0.025 µg/mL	0.488
S. pneumoniae D39V [6], first compound 0.0015 µg/mL, partner 0.03 µg/mL	0.757
S. pneumoniae D39V [6], first compound 0.0015 µg/mL, partner 0.05 µg/mL	0.186
S. pneumoniae D39V [6], first compound 0.0015 µg/mL, partner 0.06 µg/mL	0.539
S. pneumoniae D39V [6], first compound 0.003 µg/mL, partner 0.0125 µg/mL	0.77
S. pneumoniae D39V [6], first compound 0.003 µg/mL, partner 0.015 µg/mL	0.872
S. pneumoniae D39V [6], first compound 0.003 µg/mL, partner 0.025 µg/mL	0.482
S. pneumoniae D39V [6], first compound 0.003 µg/mL, partner 0.03 µg/mL	0.726
S. pneumoniae D39V [6], first compound 0.003 µg/mL, partner 0.05 µg/mL	0.186
S. pneumoniae D39V [6], first compound 0.003 µg/mL, partner 0.06 µg/mL	0.509

fitness, S. pneumoniae D39V [6], one replicate
Settings	partner 0.015 µg/mL	partner 0.03 µg/mL	partner 0.06 µg/mL
first compound 0.0008 µg/mL	0.962	0.84	0.557
first compound 0.006 µg/mL	0.505	0.385	0.298

CC1(C)S[C@@H]2[C@H](NC(=O)[C@H](N)c3ccc(O)cc3)C(=O)N2[C@H]1C(=O)O [Amoxicillin] + COc1ccc(C[C@H](N)C(=O)N[C@H]2[C@@H](O)[C@H](n3cnc4c(N(C)C)ncnc43)O[C@@H]2CO)cc1 [Puromycin]
Settings	Bliss interaction score
B. subtilis 168	0.0627
S. aureus DSM 20231 [1]	0.0606
S. aureus Newman [2]	0.0595
S. pneumoniae D39V [3]	0.277

Settings	fitness
S. aureus DSM 20231 [4], first compound 0.0625 µg/mL, partner 0.39 µg/mL	0.53
S. aureus DSM 20231 [4], first compound 0.0625 µg/mL, partner 0.78 µg/mL	0.566
S. aureus DSM 20231 [4], first compound 0.0625 µg/mL, partner 1.56 µg/mL	0.517
S. aureus DSM 20231 [4], first compound 0.125 µg/mL, partner 0.39 µg/mL	0.397
S. aureus DSM 20231 [4], first compound 0.125 µg/mL, partner 0.78 µg/mL	0.448
S. aureus DSM 20231 [4], first compound 0.25 µg/mL, partner 0.39 µg/mL	0.199
S. aureus DSM 20231 [4], first compound 0.25 µg/mL, partner 0.78 µg/mL	0.133
S. aureus DSM 20231 [4], first compound 0.25 µg/mL, partner 1.56 µg/mL	0.0396
S. aureus Newman [5], first compound 0.0625 µg/mL, partner 0.39 µg/mL	0.874
S. aureus Newman [5], first compound 0.0625 µg/mL, partner 0.78 µg/mL	0.879
S. aureus Newman [5], first compound 0.0625 µg/mL, partner 1.56 µg/mL	0.9
S. aureus Newman [5], first compound 0.125 µg/mL, partner 0.39 µg/mL	0.904
S. aureus Newman [5], first compound 0.125 µg/mL, partner 0.78 µg/mL	0.882
S. aureus Newman [5], first compound 0.125 µg/mL, partner 1.56 µg/mL	0.899
S. aureus Newman [5], first compound 0.25 µg/mL, partner 0.39 µg/mL	0.813
S. pneumoniae D39V [6], first compound 0.0008 µg/mL, partner 1 µg/mL	0.965
S. pneumoniae D39V [6], first compound 0.0008 µg/mL, partner 2 µg/mL	0.953
S. pneumoniae D39V [6], first compound 0.0008 µg/mL, partner 4 µg/mL	0.88
S. pneumoniae D39V [6], first compound 0.0015 µg/mL, partner 1 µg/mL	≥ 1
S. pneumoniae D39V [6], first compound 0.0015 µg/mL, partner 2 µg/mL	≥ 1
S. pneumoniae D39V [6], first compound 0.0015 µg/mL, partner 4 µg/mL	0.954
S. pneumoniae D39V [6], first compound 0.003 µg/mL, partner 1 µg/mL	≥ 1
S. pneumoniae D39V [6], first compound 0.003 µg/mL, partner 2 µg/mL	0.962
S. pneumoniae D39V [6], first compound 0.003 µg/mL, partner 4 µg/mL	0.891

one replicate
Settings	fitness
S. aureus DSM 20231 [4], first compound 0.0625 µg/mL, partner 3.12 µg/mL	0.58
S. aureus DSM 20231 [4], first compound 0.0625 µg/mL, partner 6.24 µg/mL	0.293
S. aureus DSM 20231 [4], first compound 0.125 µg/mL, partner 3.12 µg/mL	0.417
S. aureus DSM 20231 [4], first compound 0.125 µg/mL, partner 6.24 µg/mL	0.0695
S. aureus DSM 20231 [4], first compound 0.25 µg/mL, partner 3.12 µg/mL	0.0126
S. aureus DSM 20231 [4], first compound 0.25 µg/mL, partner 6.24 µg/mL	0.0079
S. aureus DSM 20231 [4], first compound 0.5 µg/mL, partner 0.39 µg/mL	0.0239
S. aureus DSM 20231 [4], first compound 0.5 µg/mL, partner 0.78 µg/mL	0.0124
S. aureus DSM 20231 [4], first compound 0.5 µg/mL, partner 1.56 µg/mL	0.0417
S. pneumoniae D39V [6], first compound 0.006 µg/mL, partner 1 µg/mL	0.617
S. pneumoniae D39V [6], first compound 0.006 µg/mL, partner 2 µg/mL	0.685
S. pneumoniae D39V [6], first compound 0.006 µg/mL, partner 4 µg/mL	0.612
